Values quoted from earlier work in paper PMC10034008, “Pretargeted imaging beyond the blood–brain barrier” (RSC Medicinal Chemistry, 2022).

Parameters: method as in ESI 3, 4
Conditions: irreversible tracers in their respective target regions; ref ESI 3, 4

| SMILES | trapping rate k3 [min⁻¹] |
| --- | --- |
| CCC(=O)OC1CCN([11CH3])CC1 [[11C]PMP] | 0.03 to 0.35 |
| [11CH3]N1CN(c2ccccc2)C2(CCN(CCCC(=O)c3ccc(F)cc3)CC2)C1=O [N-[11C]methylspiperone] | 0.06 |
